Experimental findings from patent publication US5256780A, “Pyrimidoindole derivatives and processes for preparation thereof” (Fujisawa Pharmaceutical Co., Ltd., priority 1989, dated 1993) are described below.

Like-named read-outs stand apart in the source and are kept apart here.

For the experiment, the system named is Bezold-Jarisch reflux. Put plainly: Inhibition of Bezold-Jarisch reflux (2-methyl-5-hydroxytryptamine-induced bradycardia in anesthetized rats). Format: in vivo. The settings on record: test compound iv, 5-minutes interval, then 2-methyl-5-hydroxytryptamine 32 μg/kg iv, urethane-anesthetized male Sprague-Dawley rats, bradycardic response. The method, then: Inhibition of Bezold-Jarisch reflux
Male Sprague-Dawley rats weighing 260-350 g were anesthetized intraperitoneally with 1.25 g/kg urethane.
Blood pressure and heart rate were monitored continuously from the left common carotid artery with a pressure transducer. A right femoral vein was cannulated for the intravenous injection (iv) of drugs. The trachea was also cannulated to ease the respiration.
Rats were given a rapid bolus injection of 2-methyl-5-hydroxytryptamine (32 μg/kg, iv) to establish the control bradycardic response. Once the heart rate returned to base line, the rats were given the test compound (iv), followed by 5-minutes interval and another bolus injection of 2-methyl-5-hydroxytryptamine (32 μg/kg, iv).

By ED50 is commonly meant the dose that gives a 50% effect, or the effect in half of the subjects. For the compound `Cc1[nH]cnc1C(C)N1CCc2c(C)c3ccccc3n2C1=O.Cl` (centres unmarked) [Compound 2, 3,4-Dihydro-5-methyl-2-[1-(5-methyl-1H-imidazol-4-yl)ethyl]pyrimido[1,6-a]indol-1(2H)-one hydrochloride], the ED50 (Rattus norvegicus, 5 min, read-out: ED50) was 1.5 µg/kg.
In the case of “3,4-dihydro-5-methyl-2-[(5-methyl-1-trityl-1H-imidazol-4-yl)methyl]pyrimido[1,6-a]indol-1 (2H)-one [Example 1]”, the ED50 is 0.56 µg/kg.
